In US20120220562A1, “Anti-Viral Compounds” (ABBOTT LABAORATORIES, priority 2011, published 2012):

System: HCV 1b-Con1 replicon
Test: HCV 1b-Con1 replicon assay in the presence of 5% FBS
Type: cell-based
Details: Hepatitis C virus

Structure (SMILES)	EC50 [nM]
COC(=O)N[C@H](C(=O)N1CCC[C@H]1c1nc2cc([C@H]3CC[C@@H](c4cc5nc([C@@H]6CCCN6C(=O)[C@@H](NC(=O)OC)C(C)C)[nH]c5cc4F)N3c3cc(F)c(N4CCCCC4)c(F)c3)c(F)cc2[nH]1)C(C)C [Example 4.52, methyl {(2S)-1-[(2S)-2-{5-[(2S,5R)-1-[3,5-difluoro-4-(piperidin-1-yl)phenyl]-5-{6-fluoro-2-[(2S)-1-{(2S)-2-[(methoxycarbonyl)amino]-3-methylbutanoyl}pyrrolidin-2-yl]-1H-benzimidazol-5-yl}pyrrolidin-2-yl]-6-fluoro-1H-benzimidazol-2-yl}pyrrolidin-1-yl]-3-methyl-1-oxobutan-2-yl}carbamate]	< 0.1
COC(=O)N[C@H](C(=O)N1CCC[C@H]1C(=O)Nc1ccc(C2CC[C@@H](c3ccc(NC(=O)[C@@H]4CCCN4C(=O)[C@@H](NC(=O)OC)C(C)C)cc3)N2c2cc(F)c(N3CCC(c4ccccc4)CC3)c(F)c2)cc1)C(C)C (stereo partly drawn) [Example 8, dimethyl ({(2S)-1-[3,5-difluoro-4-(4-phenylpiperidin-1-yl)phenyl]pyrrolidine-2,5-diyl}bis{4,1-phenylenecarbamoyl(2S)pyrrolidine-2,1-diyl[(2S)-3-methyl-1-oxobutane-1,2-diyl]})biscarbamate]	< 0.1
COC(=O)N[C@H](C(=O)N1CCC[C@H]1c1nc2cc([C@H]3CC[C@H](c4cc5nc([C@@H]6CCCN6C(=O)[C@@H](NC(=O)OC)C(C)C)[nH]c5cc4F)N3c3cc(F)c(N4CCC(c5ccc6ccccc6c5)CC4)c(F)c3)c(F)cc2[nH]1)C(C)C [Example 4.30, methyl {(2S)-1-[(2S)-2-{5-[(2R,5R)-1-{3,5-difluoro-4-[4-(2-naphthyl)piperidin-1-yl]phenyl}-5-{6-fluoro-2-[(2S)-1-{(2S)-2-[(methoxycarbonyl)amino]-3-methylbutanoyl}pyrrolidin-2-yl]-1H-benzimidazol-5-yl}pyrrolidin-2-yl]-6-fluoro-1H-benzimidazol-2-yl}pyrrolidin-1-yl]-3-methyl-1-oxobutan-2-yl}carbamate]	< 0.1
COC(=O)N[C@H](C(=O)N1CCC[C@H]1c1nc2cc([C@H]3CC[C@H](c4cc5nc([C@@H]6CCCN6C(=O)[C@@H](NC(=O)OC)C(C)C)[nH]c5cc4F)N3c3cc(F)c(N4CCN(c5ncccn5)CC4)c(F)c3)c(F)cc2[nH]1)C(C)C [Example 4.60, methyl {(2S)-1-[(2S)-2-{5-[(2R,5R)-1-{3,5-difluoro-4-[4-(pyrimidin-2-yl)piperazin-1-yl]phenyl}-5-{6-fluoro-2-[(2S)-1-{(2S)-2-[(methoxycarbonyl)amino]-3-methylbutanoyl}pyrrolidin-2-yl]-1H-benzimidazol-5-yl}pyrrolidin-2-yl]-6-fluoro-1H-benzimidazol-2-yl}pyrrolidin-1-yl]-3-methyl-1-oxobutan-2-yl}carbamate]	< 0.1
COC(=O)N[C@H](C(=O)N1CCC[C@H]1c1nc2cc([C@H]3CC[C@H](c4cc5nc([C@@H]6CCCN6C(=O)[C@@H](NC(=O)OC)C(C)C)[nH]c5cc4F)N3c3cc(F)c(N4CCC(c5ccc(F)cc5)CC4)c(F)c3)c(F)cc2[nH]1)C(C)C [Example 4.57, methyl {(2S)-1-[(2S)-2-{5-[(2R,5R)-1-{3,5-difluoro-4-[4-(4-fluorophenyl)piperidin-1-yl]phenyl}-5-{6-fluoro-2-[(2S)-1-{(2S)-2-[(methoxycarbonyl)amino]-3-methylbutanoyl}pyrrolidin-2-yl]-1H-benzimidazol-5-yl}pyrrolidin-2-yl]-6-fluoro-1H-benzimidazol-2-yl}pyrrolidin-1-yl]-3-methyl-1-oxobutan-2-yl}carbamate]	< 0.1
COC(=O)N[C@H](C(=O)N1CCC[C@H]1c1nc2cc([C@H]3CC[C@H](c4ccc5[nH]c([C@@H]6CCCN6C(=O)[C@@H](NC(=O)OC)C(C)C)nc5c4)N3c3ccc(Oc4ccccc4)cc3)ccc2[nH]1)C(C)C [Example 1.1, methyl {(2S)-1-[(2S)-2-{5-[(2R,5R)-5-{2-[(2S)-1-{(2S)-2-[(methoxycarbonyl)amino]-3-methylbutanoyl}pyrrolidin-2-yl]-1H-benzimidazol-5-yl}-1-(4-phenoxyphenyl)pyrrolidin-2-yl]-1H-benzimidazol-2-yl}pyrrolidin-1-yl]-3-methyl-1-oxobutan-2-yl}carbamate]	< 0.1
COC(=O)N[C@H](C(=O)N1CCC[C@H]1c1nc(-c2ccc([C@H]3CC[C@H](c4ccc(-c5c[nH]c([C@@H]6CCCN6C(=O)[C@@H](NC(=O)OC)C(C)C)n5)cc4)N3c3cc(F)c(N4CCC(c5ccccc5)CC4)c(F)c3)cc2)c[nH]1)C(C)C [Example 9, methyl {(2S)-1-[(2S)-2-(4-{4-[(2R,5R)-1-[3,5-difluoro-4-(4-phenylpiperidin-1-yl)phenyl]-5-(4-{2-[(2S)-1-{(2S)-2-[(methoxycarbonyl)amino]-3-methylbutanoyl}pyrrolidin-2-yl]-1H-imidazol-4-yl}phenyl)pyrrolidin-2-yl]phenyl}-1H-imidazol-2-yl)pyrrolidin-1-yl]-3-methyl-1-oxobutan-2-yl}carbamate]	< 0.1
COC(=O)N[C@H](C(=O)N1C2CCC(C2)[C@H]1c1nc2cc([C@H]3CC[C@H](c4ccc5[nH]c([C@@H]6C7CCC(C7)N6C(=O)[C@@H](NC(=O)OC)C(C)C)nc5c4)N3c3cc(F)c(N4CCCCC4)c(F)c3)ccc2[nH]1)C(C)C [Example 3.19, methyl {(2S)-1-[(3S)-3-{5-[(2R,5R)-1-[3,5-difluoro-4-(piperidin-1-yl)phenyl]-5-{2-[(3S)-2-{(2S)-2-[(methoxycarbonyl)amino]-3-methylbutanoyl}-2-azabicyclo[2.2.1]hept-3-yl]-1H-benzimidazol-5-yl}pyrrolidin-2-yl]-1H-benzimidazol-2-yl}-2-azabicyclo[2.2.1]hept-2-yl]-3-methyl-1-oxobutan-2-yl}carbamate]	< 0.1
COC(=O)N[C@H](C(=O)N1CCC[C@H]1c1nc2ccc([C@H]3CC[C@H](c4ccc5nc([C@@H]6CCCN6C(=O)[C@@H](NC(=O)OC)C(C)C)[nH]c5c4)N3c3cc(F)c(N4CCC5(CCCC5)CC4)c(F)c3)cc2[nH]1)C(C)C [Example 2.11, methyl {(2S)-1-[(2S)-2-{5-[(2R,5R)-1-[4-(8-azaspiro[4.5]dec-8-yl)-3,5-difluorophenyl]-5-{2-[(2S)-1-{(2S)-2-[(methoxycarbonyl)amino]-3-methylbutanoyl}pyrrolidin-2-yl]-1H-benzimidazol-5-yl}pyrrolidin-2-yl]-1H-benzimidazol-2-yl}pyrrolidin-1-yl]-3-methyl-1-oxobutan-2-yl}carbamate]	< 0.1
COC(=O)N[C@H](C(=O)N1CCC[C@H]1c1nc2cc([C@H]3CC[C@H](c4ccc5[nH]c([C@@H]6CCCN6C(=O)[C@@H](NC(=O)OC)C(C)C)nc5c4)N3c3ccc(N4CCCCC4=O)cc3)ccc2[nH]1)C(C)C [Example 1.2, methyl {(2S)-1-[(2S)-2-(5-{(2R,5R)-5-{2-[(2S)-1-{(2S)-2-[(methoxycarbonyl)amino]-3-methylbutanoyl}pyrrolidin-2-yl]-1H-benzimidazol-5-yl}-1-[4-(2-oxopiperidin-1-yl)phenyl]pyrrolidin-2-yl}-1H-benzimidazol-2-yl)pyrrolidin-1-yl]-3-methyl-1-oxobutan-2-yl}carbamate]	> 10
COC(=O)N[C@H](C(=O)N1[C@H](c2nc3cc([C@H]4CC[C@H](c5ccc6[nH]c([C@@H]7C[C@@H]8CCC[C@@H]8N7C(=O)[C@@H](NC(=O)OC)C7CCCC7)nc6c5)N4c4cc(F)c(N5CCCCC5)c(F)c4)ccc3[nH]2)C[C@@H]2CCC[C@@H]21)C1CCCC1 [Example 3.30, dimethyl ({(2R,5R)-1-[3,5-difluoro-4-(piperidin-1-yl)phenyl]pyrrolidine-2,5-diyl}bis{1H-benzimidazole-5,2-diyl(2S,3aS,6aS)hexahydrocyclopenta[b]pyrrole-2,1(2H)-diyl[(1S)-1-cyclopentyl-2-oxoethane-2,1-diyl]})biscarbamate]	< 0.1
COC(=O)N[C@H](C(=O)N1CCC[C@H]1c1nc2cc([C@H]3CC[C@H](c4cc5nc([C@@H]6CCCN6C(=O)[C@@H](NC(=O)OC)C(C)C)[nH]c5cc4F)N3c3cc(F)c(N4CCCCC4)c(F)c3)c(F)cc2[nH]1)C(C)C [Example 6.10, methyl {(2S)-1-[(2S)-2-{5-[(2R,5R)-1-[3,5-difluoro-4-(piperidin-1-yl)phenyl]-5-{6-fluoro-2-[(2S)-1-{(2S)-2-[(methoxycarbonyl)amino]-3-methylbutanoyl}pyrrolidin-2-yl]-1H-benzimidazol-5-yl}pyrrolidin-2-yl]-6-fluoro-1H-benzimidazol-2-yl}pyrrolidin-1-yl]-3-methyl-1-oxobutan-2-yl}carbamate]	< 0.1
COC(=O)N[C@H](C(=O)N1CCC[C@H]1c1nc2ccc([C@H]3CC[C@H](c4ccc5nc([C@@H]6CCCN6C(=O)[C@@H](NC(=O)OC)C(C)C)[nH]c5c4)N3c3ccc(OC4CCCC4)c(F)c3)cc2[nH]1)C(C)C [Example 4.1, methyl {(2S)-1-[(2S)-2-{6-[(2R,5R)-1-[4-(cyclopentyloxy)-3-fluorophenyl]-5-{2-[(2S)-1-{(2S)-2-[(methoxycarbonyl)amino]-3-methylbutanoyl}pyrrolidin-2-yl]-1H-benzimidazol-6-yl}pyrrolidin-2-yl]-1H-benzimidazol-2-yl}pyrrolidin-1-yl]-3-methyl-1-oxobutan-2-yl}carbamate]	< 0.1
COC(=O)N[C@H](C(=O)N1CCC[C@H]1c1nc2cc([C@H]3CC[C@H](c4ccc5[nH]c([C@@H]6CCCN6C(=O)[C@@H](NC(=O)OC)C(C)C)nc5c4)N3c3cc(F)c(N4CCC(C(C)(C)C)CC4)c(F)c3)ccc2[nH]1)C(C)C [Example 5.9, methyl {(2S)-1-[(2S)-2-{5-[(2R,5R)-1-[4-(4-tert-butylpiperidin-1-yl)-3,5-difluorophenyl]-5-{2-[(2S)-1-{(2S)-2-[(methoxycarbonyl)amino]-3-methylbutanoyl}pyrrolidin-2-yl]-1H-benzimidazol-5-yl}pyrrolidin-2-yl]-1H-benzimidazol-2-yl}pyrrolidin-1-yl]-3-methyl-1-oxobutan-2-yl}carbamate]	< 0.1
